From publication PMC9977398, “Next-generation membrane-active glycopeptide antibiotics that also inhibit bacterial cell division” (Chemical Science, 2023)

Legend:
VRSA [1] = assay: MIC against VRSA (strain not specified / strains taken together); type: cell-based, S. aureus; settings: ratio of MICs
Protocol: The increase in the carbon content of substituted moieties from six (1) to seven (2 and 3) to ten (5) to twelve (4), increased activity.
VanQAmC14 (10): Yield 65%; HPLC purity 96%; 1H-NMR (400 MHz, DMSO-d6) δ/ppm:
Test compound was assayed in a micro -dilution broth format as per the CLSI guideline. The bacterial freeze dried stock samples were stored at -80 °C. About 5 μL of these stocks were added to 3 mL of the respective broth and the culture was grown for 6 h at 37°C with prior to the experiments. This 6 h grown culture was diluted to give effective cell concentration of 10 5 CFU/mL which was then used for determining MIC. Compounds were serially diluted 2 -fold, in sterile millipore water and 50 μL of these serial dilutions were added to the wells of 96 well plate followed by the addition of about 150 μL of bacterial solution. The plates were then incubated for 18-24 h at 37 °C. The O.D. value at 600 nm was recorded using TECAN (Infinite series, M200 pro) Plate Reade r. Each concentration had triplicate values and the whole experiment was done at least twice and the MIC value was determined by taking the average of triplicate O. D. values for each concentration and plotting it against concentration. The data was then subjected to sigmoidal fitting. From the curve the MIC value was determined, as the point where the O. D. was similar to that of control having no bacteria.

[2] = tested on: GFP-FtsZ expressing E. coli; assay: GFP-FtsZ localization and morphology; type: cell-based; settings: 15 μM
Protocol: The FtsZ protein assembles into a membrane-associated ring structure at the division septum. It recruits other proteins for the progression and completion of cell division.[34] The effect of VanQAmC10 on the localization of FtsZ and morphology in E. coli producing green fluorescent protein (GFP)-tagged FtsZ was studied through microscopy (Fig. 5B). The cells were treated with IPTG to overexpress gfp-ftsZ and then either treated with compounds or left untreated. Upon treatment with 15 μM of VanQAmC10, the cells appear to be filamentous with variable lengths of up to 4 μm, while cells in the control group were ∼2.5 μm long. Incubation with VanQAmC10 for a longer time (130 minutes) results in bulkier filamentous cells, with severely distorted shapes (Fig. S4 ^†). […] IPTG-treated cells formed minicells of ∼1.5 μm length, which is characteristic of cells overproducing FtsZ.[35] Known inhibitors of FtsZ alter the regular midcell distribution of Z-rings.[36] […]
resuspended in prewarmed BMM media. […] The fluorescence in the GFP and Texas red channels was then observed under the microscope. […]
About 6 μl of sample was immobilized on 1% agarose pad . DIC and fluorescence images were obtained at different time intervals using Nikon Eclipse Ti Microscope equipped with Nikon DS-U3 camera through Plan Apo 100×/1.40 oil objective. […]

[3] = mice, intravenous injection; cited from earlier work
human erythrocytes = tested on: human erythrocytes; set-up: method as in PMID 32195571; settings: previously reported; cited from earlier work
VRSA [4] = tested on: VRSA; set-up: method as in PMID 32195571; settings: strain not specified, Fig. 1 legend; MIC against VRSA previously reported; cited from earlier work

SMILES | fold increase in activity as compared to vancomycin against VRSA (VRSA [1]) | localization and distribution of Z-rings [2] | length of filamentous cells ([2]; 40 min, control cells ∼2.5 μm) | LD50 [3] | HC50 (human erythrocytes) | MIC against VRSA (VRSA [4])
CNC(CC(C)C)C(=O)NC1C(=O)NC(CC(N)=O)C(=O)NC2C(=O)NC3C(=O)NC(C(=O)NC(C(=O)NCCC[N+](C)(C)Cc4ccc(-c5ccccc5)cc4)c4cc(O)cc(O)c4-c4cc3ccc4O)C(O)c3ccc(c(Cl)c3)Oc3cc2cc(c3OC2OC(CO)C(O)C(O)C2OC2CC(C)(N)C(O)C(C)O2)Oc2ccc(cc2Cl)C1O (stereo not drawn) [VanQbiph (4)] | 22 to 88 fold | – | – | – | – | –
CCCCCCCCCCNC(=O)C[N+](C)(C)CCCNC(=O)C1NC(=O)C2NC(=O)C(NC(=O)C3NC(=O)C(CC(N)=O)NC(=O)C(NC(=O)C(CC(C)C)NC)C(O)c4ccc(c(Cl)c4)Oc4cc3cc(c4OC3OC(CO)C(O)C(O)C3OC3CC(C)(N)C(O)C(C)O3)Oc3ccc(cc3Cl)C2O)c2ccc(O)c(c2)-c2c(O)cc(O)cc21 (stereo not drawn) [VanQAmC10 (8)] | – | remain unaltered | up to 4 μm | 70 mg/kg | >500 µM | 1.6 µM
